Reference: patent US10640450B1, “Hydroxytyrosol dihydrocaffeate having antioxidant activity and a method for preparing the same” (SHAANXI UNIVERSITY OF SCIENCE AND TECHNOLOGY, priority 2019, dated 2020)

Test: DPPH radical scavenging activity assay
Assay type: biochemical
Details: for DPPH Clearance rate: 30 min dark, room temperature, 517 nm, n = 3
Description: 2,2-Diphenyl-1-picryl hydrazyl (DPPH) is an organic compound composed of a stable organic radical. In the DPPH molecule, due to the presence of multiple electron-withdrawing —NO2 and large π bonds of the benzene ring, nitrogen free radical is stabilized. Its methanol solution is purple and has a maximum absorption peak at 517 nm. After the addition of an antioxidant, DPPH captures an electron to be paired with the free electron, and the purple fades and turns into a yellow substance. The absorption at 517 nm disappears, and the degree of fading is quantitatively related to the number of electrons it captures. Based on this principle, a spectrophotometer is used to detect the change of the absorbance of the DPPH radical and the sample solution, and the ability of the sample to provide hydrogen atoms and scavenge free radicals can be measured.
(a) Preparation of DPPH solution: measuring exact amount of 2,2-diphenyl-1-picryl hydrazyl (DPPH) and dissolving in toluene to prepare a 0.2 mmoL/L DPPH solution, stored at 0° C. in dark.
(b) Preparation of test solution: Vc (vitamin C, positive control), hydroxytyrosol dihydrocaffeate (sample), hydroxytyrosol (control) and dihydrocaffeic acid (control). The sample solution was subjected to gradient dilution with toluene, and three sets of controls were separately dissolved in a test tube with a certain amount of toluene to prepare the same concentration gradient as the sample.
Sample liquid absorbance measurement: Taking 2 mL of test solution (Table 1: Vc, A, B, C), adding 2 mL of DPPH solution with concentration of […], mixing and reacting in the dark at room temperature for 30 min, adjusting to zero with toluene, and measuring at 517 nm. The absorbance A, was simultaneously measured for the absorbance of 2 mL of toluene mixed with 2 mL of the solution and the absorbance A0 of 2 mL of DPPH solution mixed with 2 mL of toluene (The experimental results are shown in Table 2).
Clearance rate (%)=[1−(Ai−Aj)/A0]*100% Clearance calculation: […]

## O=C(CCc1ccc(O)c(O)c1)OCCc1ccc(O)c(O)c1 [A, 3,4-dihydroxyphenethyl 3-(3,4-dihydroxyphenyl)propanoate]
  antioxidant activity (in words): excellent antioxidant activity
1.76 ppm in toluene
  DPPH Clearance rate: 13.45%
8.80 ppm in toluene
  DPPH Clearance rate: 17.80%
21.12 ppm in toluene
  DPPH Clearance rate: 34.16%
42.24 ppm in toluene
  DPPH Clearance rate: 42.74%
79.20 ppm in toluene
  DPPH Clearance rate: 70.42%
112.64 ppm in toluene
  DPPH Clearance rate: 80.63%
281.60 ppm in toluene
  DPPH Clearance rate: 82.35%
492.80 ppm in toluene
  DPPH Clearance rate: 85.70%
792.00 ppm in toluene
  DPPH Clearance rate: 89.10%
915.20 ppm in toluene
  DPPH Clearance rate: 91.22%
Compared with hydroxytyrosol (B) and dihydrocaffeic acid (C) alone
  scavenging ability to DPPH radical compared with controls: much higher than those of hydroxytyrosol (B) control group and dihydrocaffeic acid (C) control groups
In the determined concentration range (1.76-915.20 ppm)
  highest scavenging rate of DPPH radical: 91.22%

## O=C1O[C@H]([C@@H](O)CO)C(O)=C1O [Vc, Vitamin C]
1.76 ppm in toluene
  DPPH Clearance rate: 23.16%
8.80 ppm in toluene
  DPPH Clearance rate: 33.47%
21.12 ppm in toluene
  DPPH Clearance rate: 79.63%
42.24 ppm in toluene
  DPPH Clearance rate: 89.55%
79.20 ppm in toluene
  DPPH Clearance rate: 97.42%
112.64 ppm in toluene
  DPPH Clearance rate: 97.53%
281.60 ppm in toluene
  DPPH Clearance rate: 98.29%
492.80 ppm in toluene
  DPPH Clearance rate: 99.06%
792.00 ppm in toluene
  DPPH Clearance rate: 99.10%
915.20 ppm in toluene
  DPPH Clearance rate: 99.28%

## O=C(O)CCc1ccc(O)c(O)c1 [C, Dihydrocaffeic acid]
1.76 ppm in toluene
  DPPH Clearance rate: 6.27%
8.80 ppm in toluene
  DPPH Clearance rate: 7.46%
21.12 ppm in toluene
  DPPH Clearance rate: 13.42%
42.24 ppm in toluene
  DPPH Clearance rate: 19.21%
79.20 ppm in toluene
  DPPH Clearance rate: 32.36%
112.64 ppm in toluene
  DPPH Clearance rate: 37.87%
281.60 ppm in toluene
  DPPH Clearance rate: 53.23%
492.80 ppm in toluene
  DPPH Clearance rate: 59.82%
792.00 ppm in toluene
  DPPH Clearance rate: 69.01%
915.20 ppm in toluene
  DPPH Clearance rate: 70.28%
